Measurements taken from the NIST ThermoML archive (doi:10.1021/je020140j).
Numbers after ± are expanded uncertainties.

Legend:
[1] = xn = mol fraction of the nth substance listed; conditions: 101 kPa, Liquid, x2 = 0
[2] = molar heat capacity at constant pressure; xn = mol fraction of the nth substance listed; conditions: 101 kPa, Liquid, Small sample (50 mg) DSC, x2 = 0
[3] = molar heat capacity at constant pressure; conditions: 101 kPa, Liquid, Small sample (50 mg) DSC
[4] = 101 kPa, Liquid

O [water] + OCCO
Conditions	mass density, [1] [kg/m3]	molar heat capacity at constant pressure, [2] [J/K/mol]	viscosity, [1] [mPa·s]
293.15 K	–	75.29 ± 1.8	1.002 ± 0.019
303.15 K	–	75.38 ± 1.8	0.797 ± 0.015
313.15 K	–	75.21 ± 1.8	0.653 ± 0.013
323.15 K	–	75.23 ± 1.8	0.547 ± 0.012
333.15 K	983.2 ± 5.1	75.21 ± 1.8	0.467 ± 0.011
343.15 K	977.8 ± 5.5	75.32 ± 1.8	0.405 ± 0.01
353.15 K	971.8 ± 5.8	75.48 ± 1.9	0.356 ± 0.01

OCCO [1,2-ethanediol]
Conditions	mass density, [4] [kg/m3]	molar heat capacity at constant pressure, [3] [J/K/mol]	viscosity, [4] [mPa·s]
293.15 K	1113.7 ± 4.3	147.47 ± 3.6	20.83 ± 0.27
303.15 K	–	149.71 ± 3.7	13.65 ± 0.18
313.15 K	1093.6 ± 4.9	152 ± 3.7	9.443 ± 0.13
323.15 K	1084.7 ± 5.3	153.8 ± 3.8	6.992 ± 0.11
333.15 K	1076.4 ± 5.6	156.22 ± 3.8	5.06 ± 0.082
343.15 K	1067.5 ± 5.9	159.7 ± 3.9	3.987 ± 0.066
353.15 K	1060 ± 6.3	161 ± 4	3.021 ± 0.051
363.15 K	–	164.98 ± 4	–
373.15 K	–	168.45 ± 4.1	–
